Experimental findings from patent US20240409585A1, “MACROCYCLIC IMMUNOMODULATORS” (priority 2021, published 2024) are described below.

Bridge positions count the residues as written; N and C are the ends. Square brackets hold non-standard residues; d marks the D form. Peptide text beside a SMILES is read from it. * marks the point of attachment. ξ: configuration not given here. Phe(4-CONH2) = NC(=O)c1ccc(C[C@H](N)C(=O)O)cc1; Phe(4-COOH) = N[C@@H](Cc1ccc(C(=O)O)cc1)C(=O)O; Bip = N[C@@H](Cc1ccc(-c2ccccc2)cc1)C(=O)O; Phe(4-NH2) = Nc1ccc(C[C@H](N)C(=O)O)cc1; Phe(3-Me) = Cc1cccc(C[C@H](N)C(=O)O)c1; Val(3-OH) = CC(C)(O)[C@H](N)C(=O)O; 4Pal = N[C@@H](Cc1ccncc1)C(=O)O; Cha = N[C@@H](CC1CCCCC1)C(=O)O; Cit = NC(=O)NCCC[C@H](N)C(=O)O; AllylGly = C=CC[C@H](N)C(=O)O; Thr(3ξ) = CC(O)[C@H](N)C(=O)O; Pen = CC(C)(S)[C@H](N)C(=O)O; Carboxymethyl = O=C(O)C*; NMeA = CN[C@@H](C)C(=O)O; Orn = NCCC[C@H](N)C(=O)O; Pra = C#CC[C@H](N)C(=O)O; Dab = NCC[C@H](N)C(=O)O; Dap = NC[C@H](N)C(=O)O; NH(CH2)3NH2 = NCCCN*; ξC = NC(CS)C(=O)O

T1 sequence (Q15116 25-288): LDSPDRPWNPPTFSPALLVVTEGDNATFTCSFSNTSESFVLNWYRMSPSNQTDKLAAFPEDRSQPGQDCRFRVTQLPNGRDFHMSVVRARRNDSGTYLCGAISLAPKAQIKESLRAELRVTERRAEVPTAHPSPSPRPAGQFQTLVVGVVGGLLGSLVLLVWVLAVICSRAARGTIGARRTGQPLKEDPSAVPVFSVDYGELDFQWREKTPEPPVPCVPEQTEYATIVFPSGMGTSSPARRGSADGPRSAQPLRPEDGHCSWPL

The assay addresses T1, PE-labeled human PD-L1-Ig binding to Jurkat cell line over-expressing human PD-1 (Jurkat-PD-1) (Homo sapiens, UniProt Q15116).
T1 construct: expressed in transfected cells; host or cells: Jurkat
Kind of assay: Jurkat-PD-1 Cell Binding High-Content Screening Assay (CBA): Method 1. The following applies: Jurkat-hPD-1 cells, PE-labeled PD-L1-Ig 20 nM final; read-out: Jurkat HPDL1 PD1 IC50 (uM) (Method 1).
In general, IC50 refers to the point on the concentration scale where inhibition reaches its midpoint. `C=CC[C@H](NC(=O)C1CSCC(=O)N[C@@H](Cc2ccc(OCC(=O)O)cc2)C(=O)N[C@@H](CC=C)C(=O)N[C@@H](CC(=O)O)C(=O)N[C@@H](Cc2cccc(C)c2)C(=O)N[C@@H](CC(C)C)C(=O)N[C@@H](Cc2ccc(-c3ccccc3)cc2)C(=O)N[C@@H](C(C)C)C(=O)N(C)[C@@H](C)C(=O)N[C@H](CC(C)C)C(=O)N[C@@H](CC(N)=O)C(=O)N[C@@H](CC(C)C)C(=O)N[C@@H](C(C)C)C(=O)N[C@@H](CO)C(=O)N1)C(N)=O` (stereo partly drawn) [Compound 1884] ({CH2CO}-Y(Carboxymethyl)[AllylGly]D[Phe(3-Me)]L[Bip]V[NMeA][dL]NLVS[ξC][AllylGly]-NH2; thioether N-14): the IC50 worked out at 0.03 µM.
The result for `CC(C)C[C@@H]1NC(=O)[C@H](CCCN)NC(=O)[C@@H](CC(C)C)NC(=O)[C@H](C)N(C)C(=O)[C@H](CCCNC(=N)N)NC(=O)[C@H](Cc2ccc(-c3ccccc3)cc2)NC(=O)[C@H](C(C)C)NC(=O)[C@H](Cc2c[nH]c3ccccc23)NC(=O)[C@H](CC(=O)O)NC(=O)[C@H](Cc2ccc(OCC(=O)O)cc2)NC(=O)[C@H](CC(N)=O)NC(=O)CSC[C@@H](C(=O)N[C@@H](C)C(N)=O)NC(=O)[C@H]([C@@H](C)O)NC(=O)[C@H](C(C)C)NC1=O` [Compound 1152] ({CH2CO}-NY(Carboxymethyl)DWV[Bip]R[NMeA][dL][Orn]LVTCA-NH2; thioether N-14) reads 0.08 µM; that for `CC(C)C[C@@H]1NC(=O)[C@H](Cc2c[nH]c3ccccc23)NC(=O)[C@H](CC(=O)O)NC(=O)[C@H](Cc2ccc(C(=O)O)cc2)NC(=O)[C@H](Cc2cnc[nH]2)NC(=O)CSC[C@@H](C(=O)N[C@@H](C)C(N)=O)NC(=O)[C@H](CO)NC(=O)[C@H](C(C)C)NC(=O)[C@H](CC(C)C)NC(=O)[C@H](CC(N)=O)NC(=O)[C@@H](C)NC(=O)[C@H](C)N(C)C(=O)[C@H](C(C)C)NC(=O)[C@H](Cc2ccc(-c3ccccc3)cc2)NC1=O` [Compound 1760] ({CH2CO}-H[Phe(4-COOH)]DWL[Bip]V[NMeA][dA]NLVSCA-NH2; thioether N-14), 0.03 µM; that for `CC(=O)NCCCC[C@@H]1NC(=O)[C@H](C(C)C)NC(=O)[C@H](CC2CCCCC2)NC(=O)[C@H](CCN)NC(=O)[C@@H](CC(C)C)NC(=O)[C@H](C)N(C)C(=O)[C@H](CCC(N)=O)NC(=O)[C@H](Cc2ccc(-c3ccccc3)cc2)NC(=O)[C@H](C(C)C)NC(=O)[C@H](Cc2cccc(C)c2)NC(=O)[C@H](CC(=O)O)NC(=O)[C@H](Cc2ccc(OCC(=O)O)cc2)NC(=O)[C@H](Cc2ccc(OCC(=O)O)cc2)NC(=O)CSC[C@@H](C(=O)NCCCN)NC1=O` [Compound 2265] ({CH2CO}-Y(Carboxymethyl)Y(Carboxymethyl)D[Phe(3-Me)]V[Bip]Q[NMeA][dL][Dab][Cha]VK(Ac)C-{NH(CH2)3NH2}; thioether N-14), 0.02 µM.
As for `Cc1cccc(C[C@@H]2NC(=O)[C@H](CC(=O)O)NC(=O)[C@H](Cc3ccc(OCC(=O)O)cc3)NC(=O)[C@H](Cc3ccc(OCC(=O)O)cc3)NC(=O)CSC(C)(C)[C@@H](C(=O)N[C@H](C)C(N)=O)NC(=O)[C@H](CCCNC(N)=O)NC(=O)[C@H](C(C)C)NC(=O)[C@H](CC3CCCCC3)NC(=O)[C@H](CCN)NC(=O)[C@@H](CC(C)C)NC(=O)[C@H](C)N(C)C(=O)[C@H](Cc3cnc[nH]3)NC(=O)[C@H](Cc3ccc(-c4ccccc4)cc3)NC(=O)[C@H](Cc3ccc(C(N)=O)cc3)NC2=O)c1` [Compound 2126] ({CH2CO}-Y(Carboxymethyl)Y(Carboxymethyl)D[Phe(3-Me)][Phe(4-CONH2)][Bip]H[NMeA][dL][Dab][Cha]V[Cit][Pen][dA]-NH2; thioether N-14), the figure is 0.66 µM; as for `CC(C)C[C@H]1NC(=O)[C@H](C)N(C)C(=O)[C@H](C(C)C)NC(=O)[C@H](Cc2ccc(-c3ccccc3)cc2)NC(=O)[C@H](C(C)C)NC(=O)[C@H](Cc2c[nH]c3ccccc23)NC(=O)[C@H](CC(=O)O)NC(=O)[C@H](Cc2ccncc2)NC(=O)[C@H](Cc2ccc(OCC(=O)O)cc2)NC(=O)CSC[C@@H](C(N)=O)NC(=O)[C@H](CO)NC(=O)[C@H](C(C)C)NC(=O)[C@H](CC2CCCCC2)NC(=O)[C@H](CCCCN)NC1=O` [Compound 2245] ({CH2CO}-Y(Carboxymethyl)[4Pal]DWV[Bip]V[NMeA][dL]K[Cha]VSC-NH2; thioether N-14), 0.01 µM; as for `CC(C)C[C@@H]1NC(=O)[C@H](Cc2c[nH]c3ccccc23)NC(=O)[C@H](CC(=O)O)NC(=O)[C@H](Cc2ccc(O)cc2)NC(=O)[C@H](Cc2ccccc2)NC(=O)CSC[C@@H](C(=O)N[C@@H](C)C(N)=O)NC(=O)[C@H](CO)NC(=O)[C@H](CCCN)NC(=O)[C@H](CC(C)C)NC(=O)[C@H](CC(N)=O)NC(=O)[C@@H](C)NC(=O)[C@H](C)N(C)C(=O)[C@H](C(C)C)NC(=O)[C@H](Cc2ccc(-c3ccccc3)cc2)NC1=O` [Compound 1530] ({CH2CO}-FYDWL[Bip]V[NMeA][dA]NL[Orn]SCA-NH2; thioether N-14), 0.03 µM.
As for `CC(C)C[C@@H]1NC(=O)[C@H](CCCNC(=N)N)NC(=O)[C@@H](CC(C)C)NC(=O)[C@H](C)N(C)C(=O)[C@H](CCCNC(=N)N)NC(=O)[C@H](Cc2ccc(-c3ccccc3)cc2)NC(=O)[C@H](C(C)C)NC(=O)[C@H](Cc2c[nH]c3ccccc23)NC(=O)[C@H](CC(=O)O)NC(=O)[C@H](Cc2ccc(O)cc2)NC(=O)[C@H](Cc2ccccc2)NC(=O)CSC[C@@H](C(=O)N[C@@H](C)C(N)=O)NC(=O)[C@H](CO)NC(=O)[C@H](C(C)C)NC1=O` [Compound 1035] ({CH2CO}-FYDWV[Bip]R[NMeA][dL]RLVSCA-NH2; thioether N-14), the IC50 was 0.08 µM.
Take `C#CC[C@H](NC(=O)[C@@H](C)NC(=O)[C@@H]1CSCC(=O)N[C@@H](Cc2ccc(OCC(=O)O)cc2)C(=O)N[C@@H](Cc2ccc(C(=O)O)cc2)C(=O)N[C@@H](CC(=O)O)C(=O)N[C@@H](Cc2c[nH]c3ccccc23)C(=O)N[C@@H](CC(C)C)C(=O)N[C@@H](Cc2ccc(-c3ccccc3)cc2)C(=O)N[C@@H](C(C)C)C(=O)N(C)[C@@H](C)C(=O)N[C@H](CC(C)C)C(=O)N[C@@H](CCN)C(=O)N[C@@H](CC2CCCCC2)C(=O)N[C@@H](C(C)(C)O)C(=O)N[C@@H](CO)C(=O)N1)C(=O)O` [Compound 1941] ({CH2CO}-Y(Carboxymethyl)[Phe(4-COOH)]DWL[Bip]V[NMeA][dL][Dab][Cha][Val(3-OH)]SC[dA][Pra]-OH; thioether N-14): the IC50 amounted to 0.01 µM.
As for `Cc1cccc(C[C@@H]2NC(=O)[C@H](CC(=O)O)NC(=O)[C@H](Cc3ccc(C(=O)O)cc3)NC(=O)[C@H](C(C)O)NC(=O)CSC[C@@H](C(=O)N[C@H](C(N)=O)C(C)(C)O)NC(=O)[C@H](CO)NC(=O)[C@H](C(C)(C)O)NC(=O)[C@H](CC3CCCCC3)NC(=O)[C@H](CCN)NC(=O)[C@@H](CC(C)C)NC(=O)[C@H](C)N(C)C(=O)[C@H](Cc3ccc(OCC(=O)O)cc3)NC(=O)[C@H](Cc3ccc(-c4ccccc4)cc3)NC(=O)[C@H](Cc3ccc(OCC(=O)O)cc3)NC2=O)c1` (stereo partly drawn) [Compound 2202] ({CH2CO}-[Thr(3ξ)][Phe(4-COOH)]D[Phe(3-Me)]Y(Carboxymethyl)[Bip]Y(Carboxymethyl)[NMeA][dL][Dab][Cha][Val(3-OH)]SC[Val(3-OH)]-NH2; thioether N-14), the IC50 turned out to be 0.5 µM.
As for `Cc1cccc(C[C@@H]2NC(=O)[C@H](CC(=O)O)NC(=O)[C@H](Cc3ccc(O)cc3)NC(=O)[C@H](CC(N)=O)NC(=O)CSC[C@@H](C(=O)N[C@@H](CCN)C(N)=O)NC(=O)[C@H]([C@@H](C)O)NC(=O)[C@H](C(C)(C)O)NC(=O)[C@H](CC3CCCCC3)NC(=O)[C@H](CCN)NC(=O)[C@@H](CC(C)C)NC(=O)[C@H](C)N(C)C(=O)[C@H](CCCNC(N)=O)NC(=O)[C@H](Cc3ccc(-c4ccccc4)cc3)NC(=O)[C@H](C(C)C)NC2=O)c1` [Compound 1701] ({CH2CO}-NYD[Phe(3-Me)]V[Bip][Cit][NMeA][dL][Dab][Cha][Val(3-OH)]TC[Dab]-NH2; thioether N-14), the figure is 0.01 µM.
As for `CC(C)C[C@@H]1NC(=O)[C@H](CCCNC(=N)N)NC(=O)[C@@H](CC(C)C)NC(=O)[C@H](C)N(C)C(=O)[C@H](CCCNC(=N)N)NC(=O)[C@H](Cc2ccc(-c3ccccc3)cc2)NC(=O)[C@H](C(C)C)NC(=O)[C@H](Cc2c[nH]c3ccccc23)NC(=O)[C@H](CC(=O)O)NC(=O)[C@H](Cc2ccc(N)cc2)NC(=O)[C@H](Cc2ccccc2)NC(=O)CSC[C@@H](C(=O)N[C@@H](C)C(N)=O)NC(=O)[C@H]([C@@H](C)O)NC(=O)[C@H](C(C)C)NC1=O` [Compound 1082] ({CH2CO}-F[Phe(4-NH2)]DWV[Bip]R[NMeA][dL]RLVTCA-NH2; thioether N-14), the IC50 worked out at 0.04 µM.
As to `CC(C)C[C@@H]1NC(=O)[C@H](CCCN)NC(=O)[C@@H](CC(C)C)NC(=O)[C@H](C)N(C)C(=O)[C@H](CCCNC(N)=O)NC(=O)[C@H](Cc2ccc(-c3ccccc3)cc2)NC(=O)[C@H](C(C)C)NC(=O)[C@H](Cc2c[nH]c3ccccc23)NC(=O)[C@H](CC(=O)O)NC(=O)[C@H](Cc2ccc(O)cc2)NC(=O)[C@H](CC(N)=O)NC(=O)CSC[C@@H](C(=O)N[C@@H](C)C(N)=O)NC(=O)[C@H]([C@@H](C)O)NC(=O)[C@H](C(C)C)NC1=O` [Compound 1234] ({CH2CO}-NYDWV[Bip][Cit][NMeA][dL][Orn]LVTCA-NH2; thioether N-14), the IC50 was 0.03 µM.
Regarding `CC(C)C[C@@H]1NC(=O)[C@H](CCN)NC(=O)[C@@H](CC(C)C)NC(=O)[C@H](C)N(C)C(=O)[C@H](Cc2cnc[nH]2)NC(=O)[C@H](Cc2ccc(-c3ccccc3)cc2)NC(=O)[C@H](C(C)C)NC(=O)[C@H](Cc2c[nH]c3ccccc23)NC(=O)[C@H](CC(=O)O)NC(=O)[C@H](Cc2ccc(O)cc2)NC(=O)[C@H](CN)NC(=O)CSC[C@@H](C(=O)N[C@@H](C)C(N)=O)NC(=O)[C@H]([C@@H](C)O)NC(=O)[C@H](C(C)C)NC1=O` [Compound 1424] ({CH2CO}-[Dap]YDWV[Bip]H[NMeA][dL][Dab]LVTCA-NH2; thioether N-14), the IC50 was 0.05 µM.
